# According to publication PMC8037182, “Solvothermal Synthesis of Multiple Dihydropyrimidinones at a Time as Inhibitors of Eg5” (Molecules, 2021):
# pIC50: −log10 of the molar value.
# Key:
# Caco-2 cell line = assay: Cytotoxicity MTS assay, Caco-2 cell line; format: cell-based; conditions: for OD490 Mean / OD490 Well 1 / OD490 Well 2 / OD490 Well 3: Caco-2 cell line
# Experimental: (§1) The positive compounds (IC50 < 100 μM) obtained from the primary Eg5 motor protein ATPase assay were tested for antiproliferative activity in vitro against Caco-2 cell line, Hela cell line, L929 cell line and T24 cell line by performing MTS assay. Cells were introduced into 96-well plates at a density of 1000 cells per well. After 24 h incubation, the cells were exposed with compounds at final concentrations ranging from 0.5 to 100 µM for 24 h. DMSO was used at a final concentration of 0.025% as blank control, monastrol was used as the positive control. Then 20 µL (CellTiter 96® AQueous One Solution Promega, Madison, WI, USA) reagent was added in each well. After 2 h at 37 °C in a 80% humidified, 5% CO2 atmosphere, the absorbance at 490 nm was recorded using a microplate reader (BIO-RAD iMark^TM). The results were obtained in three independent duplicate experiments. The primary data were shown in Supplementary Materials Tables S4–S7. The IC50 values for these compounds were calculated from a non-linear regression graph plotted between the percentage of cell viability and concentration with SPSS17.0 software.
# Hela cell line = assay: Cytotoxicity MTS assay, Hela cell line; format: cell-based; conditions: for OD490 value, Mean / OD490 value, Well 1 / OD490 value, Well 2 / OD490 value, Well 3: Hela cell line, MTS
# Experimental: as §1
structure (smiles),measurement,setting,value
CCOC(=O)c1c(C2NC(=O)NC(C)=C2C(=O)Nc2ccccc2OC)[nH]c(C(=O)OC)c1C (centres unmarked) [D1],OD490 Mean,"Caco-2 cell line; 0.5μM, first assay",0.6107
same,OD490 Well 1,"Caco-2 cell line; 0.5μM, first assay",0.5649
same,OD490 Well 2,"Caco-2 cell line; 0.5μM, first assay",0.5391
same,OD490 Well 3,"Caco-2 cell line; 0.5μM, first assay",0.7282
same,OD490 Mean,"Caco-2 cell line; 0.5μM, second assay",0.6066
same,OD490 Well 1,"Caco-2 cell line; 0.5μM, second assay",0.6391
same,OD490 Well 2,"Caco-2 cell line; 0.5μM, second assay",0.6324
same,OD490 Well 3,"Caco-2 cell line; 0.5μM, second assay",0.5484
same,OD490 Mean,"Caco-2 cell line; 0.5μM, third assay",0.6142
same,OD490 Well 1,"Caco-2 cell line; 0.5μM, third assay",0.6774
same,OD490 Well 2,"Caco-2 cell line; 0.5μM, third assay",0.5749
same,OD490 Well 3,"Caco-2 cell line; 0.5μM, third assay",0.5903
same,OD490 Mean,"Caco-2 cell line; 1μM, first assay",0.6086
same,OD490 Well 1,"Caco-2 cell line; 1μM, first assay",0.6046
same,OD490 Well 2,"Caco-2 cell line; 1μM, first assay",0.6209
same,OD490 Well 3,"Caco-2 cell line; 1μM, first assay",0.6002
same,OD490 Mean,"Caco-2 cell line; 1μM, second assay",0.6031
same,OD490 Well 1,"Caco-2 cell line; 1μM, second assay",0.6102
same,OD490 Well 2,"Caco-2 cell line; 1μM, second assay",0.5846
same,OD490 Well 3,"Caco-2 cell line; 1μM, second assay",0.6145
same,OD490 Mean,"Caco-2 cell line; 1μM, third assay",0.6182
same,OD490 Well 1,"Caco-2 cell line; 1μM, third assay",0.6046
same,OD490 Well 2,"Caco-2 cell line; 1μM, third assay",0.6112
same,OD490 Well 3,"Caco-2 cell line; 1μM, third assay",0.6387
same,OD490 Mean,"Caco-2 cell line; 10μM, first assay",0.6584
same,OD490 Well 1,"Caco-2 cell line; 10μM, first assay",0.6611
same,OD490 Well 2,"Caco-2 cell line; 10μM, first assay",0.6501
same,OD490 Well 3,"Caco-2 cell line; 10μM, first assay",0.6639
same,OD490 Mean,"Caco-2 cell line; 10μM, second assay",0.6246
same,OD490 Well 1,"Caco-2 cell line; 10μM, second assay",0.6493
same,OD490 Well 2,"Caco-2 cell line; 10μM, second assay",0.5502
same,OD490 Well 3,"Caco-2 cell line; 10μM, second assay",0.6742
same,OD490 Mean,"Caco-2 cell line; 10μM, third assay",0.6177
same,OD490 Well 1,"Caco-2 cell line; 10μM, third assay",0.6611
same,OD490 Well 2,"Caco-2 cell line; 10μM, third assay",0.5578
same,OD490 Well 3,"Caco-2 cell line; 10μM, third assay",0.6341
same,OD490 Mean,"Caco-2 cell line; 25μM, first assay",0.5948
same,OD490 Well 1,"Caco-2 cell line; 25μM, first assay",0.6149
same,OD490 Well 2,"Caco-2 cell line; 25μM, first assay",0.5791
same,OD490 Well 3,"Caco-2 cell line; 25μM, first assay",0.5903
same,OD490 Mean,"Caco-2 cell line; 25μM, second assay",0.5865
same,OD490 Well 1,"Caco-2 cell line; 25μM, second assay",0.5801
same,OD490 Well 2,"Caco-2 cell line; 25μM, second assay",0.6127
same,OD490 Well 3,"Caco-2 cell line; 25μM, second assay",0.5666
same,OD490 Mean,"Caco-2 cell line; 25μM, third assay",0.5866
same,OD490 Well 1,"Caco-2 cell line; 25μM, third assay",0.5903
same,OD490 Well 2,"Caco-2 cell line; 25μM, third assay",0.5721
same,OD490 Well 3,"Caco-2 cell line; 25μM, third assay",0.5974
same,OD490 Mean,"Caco-2 cell line; 50μM, first assay",0.5045
same,OD490 Well 1,"Caco-2 cell line; 50μM, first assay",0.5048
same,OD490 Well 2,"Caco-2 cell line; 50μM, first assay",0.5114
same,OD490 Well 3,"Caco-2 cell line; 50μM, first assay",0.4972
same,OD490 Mean,"Caco-2 cell line; 50μM, second assay",0.5178
same,OD490 Well 1,"Caco-2 cell line; 50μM, second assay",0.4983
same,OD490 Well 2,"Caco-2 cell line; 50μM, second assay",0.5020
same,OD490 Well 3,"Caco-2 cell line; 50μM, second assay",0.5531
same,OD490 Mean,"Caco-2 cell line; 50μM, third assay",0.5361
same,OD490 Well 1,"Caco-2 cell line; 50μM, third assay",0.6048
same,OD490 Well 2,"Caco-2 cell line; 50μM, third assay",0.5048
same,OD490 Well 3,"Caco-2 cell line; 50μM, third assay",0.4988
same,OD490 Mean,"Caco-2 cell line; 100μM, first assay",0.5483
same,OD490 Well 1,"Caco-2 cell line; 100μM, first assay",0.6273
same,OD490 Well 2,"Caco-2 cell line; 100μM, first assay",0.5214
same,OD490 Well 3,"Caco-2 cell line; 100μM, first assay",0.4962
same,OD490 Mean,"Caco-2 cell line; 100μM, second assay",0.5031
same,OD490 Well 1,"Caco-2 cell line; 100μM, second assay",0.5662
same,OD490 Well 2,"Caco-2 cell line; 100μM, second assay",0.4999
same,OD490 Well 3,"Caco-2 cell line; 100μM, second assay",0.4431
same,OD490 Mean,"Caco-2 cell line; 100μM, third assay",0.4792
same,OD490 Well 1,"Caco-2 cell line; 100μM, third assay",0.5214
same,OD490 Well 2,"Caco-2 cell line; 100μM, third assay",0.4347
same,OD490 Well 3,"Caco-2 cell line; 100μM, third assay",0.4814
same,pIC50,"Caco-2 cell line; MTS assay, 24 h exposure",3.97
same,"OD490 value, Mean","Hela cell line; 0.5μM, first assay",2.5955
same,"OD490 value, Well 1","Hela cell line; 0.5μM, first assay",2.6286
same,"OD490 value, Well 2","Hela cell line; 0.5μM, first assay",2.5425
same,"OD490 value, Well 3","Hela cell line; 0.5μM, first assay",2.6155
same,"OD490 value, Mean","Hela cell line; 0.5μM, second assay",2.5919
same,"OD490 value, Well 1","Hela cell line; 0.5μM, second assay",2.6314
same,"OD490 value, Well 2","Hela cell line; 0.5μM, second assay",2.6010
same,"OD490 value, Well 3","Hela cell line; 0.5μM, second assay",2.5433
same,"OD490 value, Mean","Hela cell line; 0.5μM, third assay",2.5096
same,"OD490 value, Well 1","Hela cell line; 0.5μM, third assay",2.7036
same,"OD490 value, Well 2","Hela cell line; 0.5μM, third assay",2.5565
same,"OD490 value, Well 3","Hela cell line; 0.5μM, third assay",2.2688
same,"OD490 value, Mean","Hela cell line; 1μM, first assay",2.6416
same,"OD490 value, Well 1","Hela cell line; 1μM, first assay",2.6885
same,"OD490 value, Well 2","Hela cell line; 1μM, first assay",2.5442
same,"OD490 value, Well 3","Hela cell line; 1μM, first assay",2.6922
same,"OD490 value, Mean","Hela cell line; 1μM, second assay",2.5793
same,"OD490 value, Well 1","Hela cell line; 1μM, second assay",2.5367
same,"OD490 value, Well 2","Hela cell line; 1μM, second assay",2.4698
same,"OD490 value, Well 3","Hela cell line; 1μM, second assay",2.7314
same,"OD490 value, Mean","Hela cell line; 1μM, third assay",2.7183
same,"OD490 value, Well 1","Hela cell line; 1μM, third assay",2.6969
same,"OD490 value, Well 2","Hela cell line; 1μM, third assay",2.7546
same,"OD490 value, Well 3","Hela cell line; 1μM, third assay",2.7033
same,"OD490 value, Mean","Hela cell line; 10μM, first assay",2.4106
same,"OD490 value, Well 1","Hela cell line; 10μM, first assay",2.3442
same,"OD490 value, Well 2","Hela cell line; 10μM, first assay",2.5603
same,"OD490 value, Well 3","Hela cell line; 10μM, first assay",2.3272
same,"OD490 value, Mean","Hela cell line; 10μM, second assay",2.3296
same,"OD490 value, Well 1","Hela cell line; 10μM, second assay",2.6351
same,"OD490 value, Well 2","Hela cell line; 10μM, second assay",2.1367
same,"OD490 value, Well 3","Hela cell line; 10μM, second assay",2.2169
same,"OD490 value, Mean","Hela cell line; 10μM, third assay",2.4826
same,"OD490 value, Well 1","Hela cell line; 10μM, third assay",2.5635
same,"OD490 value, Well 2","Hela cell line; 10μM, third assay",2.3145
same,"OD490 value, Well 3","Hela cell line; 10μM, third assay",2.5698
same,"OD490 value, Mean","Hela cell line; 25μM, first assay",2.1398
same,"OD490 value, Well 1","Hela cell line; 25μM, first assay",2.1204
same,"OD490 value, Well 2","Hela cell line; 25μM, first assay",2.2546
same,"OD490 value, Well 3","Hela cell line; 25μM, first assay",2.0445
same,"OD490 value, Mean","Hela cell line; 25μM, second assay",2.1914
same,"OD490 value, Well 1","Hela cell line; 25μM, second assay",2.2361
same,"OD490 value, Well 2","Hela cell line; 25μM, second assay",2.1235
same,"OD490 value, Well 3","Hela cell line; 25μM, second assay",2.2145
same,"OD490 value, Mean","Hela cell line; 25μM, third assay",2.1507
same,"OD490 value, Well 1","Hela cell line; 25μM, third assay",2.2233
same,"OD490 value, Well 2","Hela cell line; 25μM, third assay",2.2142
same,"OD490 value, Well 3","Hela cell line; 25μM, third assay",2.0145
same,"OD490 value, Mean","Hela cell line; 50μM, first assay",2.0448
same,"OD490 value, Well 1","Hela cell line; 50μM, first assay",2.0719
same,"OD490 value, Well 2","Hela cell line; 50μM, first assay",2.1034
same,"OD490 value, Well 3","Hela cell line; 50μM, first assay",1.9590
same,"OD490 value, Mean","Hela cell line; 50μM, second assay",2.0574
same,"OD490 value, Well 1","Hela cell line; 50μM, second assay",1.9987
same,"OD490 value, Well 2","Hela cell line; 50μM, second assay",2.1136
same,"OD490 value, Well 3","Hela cell line; 50μM, second assay",2.0599
same,"OD490 value, Mean","Hela cell line; 50μM, third assay",2.0424
same,"OD490 value, Well 1","Hela cell line; 50μM, third assay",2.0136
same,"OD490 value, Well 2","Hela cell line; 50μM, third assay",1.9658
same,"OD490 value, Well 3","Hela cell line; 50μM, third assay",2.1478
same,"OD490 value, Mean","Hela cell line; 100μM, first assay",1.9714
same,"OD490 value, Well 1","Hela cell line; 100μM, first assay",1.9106
same,"OD490 value, Well 2","Hela cell line; 100μM, first assay",1.9576
same,"OD490 value, Well 3","Hela cell line; 100μM, first assay",2.0459
same,"OD490 value, Mean","Hela cell line; 100μM, second assay",1.9690
same,"OD490 value, Well 1","Hela cell line; 100μM, second assay",2.0360
same,"OD490 value, Well 2","Hela cell line; 100μM, second assay",1.8490
same,"OD490 value, Well 3","Hela cell line; 100μM, second assay",2.0220
same,"OD490 value, Mean","Hela cell line; 100μM, third assay",1.9075
same,"OD490 value, Well 1","Hela cell line; 100μM, third assay",2.0141
same,"OD490 value, Well 2","Hela cell line; 100μM, third assay",1.8426
same,"OD490 value, Well 3","Hela cell line; 100μM, third assay",1.8657
same,pIC50,"Hela cell line; MTS assay, 24 h exposure",3.89
